# Experimental data from US8933052B2, “Uracyl spirooxetane nucleosides” (Janssen Products, LP, priority 2009, dated 2015).
# Read-outs that look alike come from different tables or passages of the source.
# Assays:
# HIV [1] = conditions: described in Org. Biomol. Chem., 2003, 3514-3526; cited from earlier work
# HCV type 1b replicon = test: HCV replicon assay (Huh-Luc cells, luciferase readout); format: cell-based; conditions: Hepatitis C virus, 72 h, read-out: EC50 (μM) (HCV)
# Text: (§1) The in vitro antiviral activity against HCV of the compounds of formula I can be tested in a cellular HCV replicon system based on Lohmann et al. (1999) Science 285:110-113, with the further modifications described by Krieger et al. (2001) Journal of Virology 75: 4614-4624 (incorporated herein by reference), which is further exemplified in the examples section. This model, while not a complete infection model for HCV, is widely accepted as the most robust and efficient model of autonomous HCV RNA replication currently available. It will be appreciated that it is important to distinguish between compounds that specifically interfere with HCV functions from those that exert cytotoxic or cytostatic effects in the HCV replicon model, and as a consequence cause a decrease in HCV RNA or linked reporter enzyme concentration. Assays are known in the field for the evaluation of cellular cytotoxicity based for example on the activity of mitochondrial enzymes using fluorogenic redox dyes such as resazurin. Furthermore, cellular counter screens exist for the evaluation of non-selective inhibition of linked reporter gene activity, such as firefly luciferase. Appropriate cell types can be equipped by stable transfection with a luciferase reporter gene whose expression is dependent on a constitutively active gene promoter, and such cells can be used as a counter-screen to eliminate non-selective inhibitors.
# The compounds of formula I were examined for activity in the inhibition of HCV-RNA replication in a cellular assay. […] The cellular assay was based on a bicistronic expression construct, as described by Lohmann et al. (1999) Science vol. 285 pp. 110-113 with modifications described by Krieger et al. (2001) Journal of Virology 75: 4614-4624, in a multi-target screening strategy.
# In essence, the method was as follows. The assay utilized the stably transfected cell line Huh-7 luc/neo (hereafter referred to as Huh-Luc). This cell line harbors an RNA encoding a bicistronic expression construct comprising the wild type NS3-NS5B regions of HCV type 1b translated from an internal ribosome entry site (IRES) from encephalomyocarditis virus (EMCV), preceded by a reporter portion (FfL-luciferase), and a selectable marker portion (neo^R, neomycine phosphotransferase). The construct is bordered by 5′ and 3′ NTRs (non-translated regions) from HCV genotype 1b. Continued culture of the replicon cells in the presence of G418 (neo^R) is dependent on the replication of the HCV-RNA. The stably transfected replicon cells that express HCV-RNA, which replicates autonomously and to high levels, encoding inter alia luciferase, were used for screening the antiviral compounds.
# The replicon cells were plated in 384-well plates in the presence of the test and control compounds which were added in various concentrations. Following an incubation of three days, HCV replication was measured by assaying luciferase activity (using standard luciferase assay substrates and reagents and a Perkin Elmer ViewLux™ ultraHTS microplate imager). Replicon cells in the control cultures have high luciferase expression in the absence of any inhibitor. The inhibitory activity of the compound on luciferase activity was monitored on the Huh-Luc cells, enabling a dose-response curve for each test compound. EC50 values were then calculated, which value represents the amount of the compound required to decrease the level of detected luciferase activity by 50%, or more specifically, the ability of the genetically linked HCV replicon RNA to replicate.
# [2] = Cytotoxicity in Huh-7 cells; format: cell-based; conditions: human
# Text: as §1, with “inhibitors. […]” for “inhibitors.”
# HIV [3] = test: HIV activity; format: cell-based; conditions: Human immunodeficiency virus 1, read-out: EC50 (μM) (HIV)
# Text: (§2) Also the HIV activity is given (EC50 HIV (μM)) and the cellular toxicity in the HIV cell-line (CC50 (μM) (MT-4)).
# [4] = Cellular toxicity in the HIV cell-line MT-4; format: cell-based; conditions: human, MT-4 cells, read-out: CC50 (μM) (MT4)
# Text: as §2
# [5] = Huh-Luc replicon cells, HCV type 1b, three days incubation, luciferase activity
SMILES,activity against HIV (HIV [1]),EC50 (HCV type 1b replicon; [5]) [µM],CC50 [2] [µM],EC50 (HIV [3]) [µM],CC50 [4] [µM],EC50 (HCV type 1b replicon) [µM]
"Cc1cn([C@@H]2O[C@H](CO)[C@@H](O)[C@]23CCO3)c(=O)[nH]c1=O [1-(2-O,2-C-ethano-β-D-ribofuranosyl)thymine]",no activity,,,,,
"O=c1ccn([C@@H]2O[C@H](CO)[C@@H](O)[C@]23CCO3)c(=O)[nH]1 [1-(2-O,2-C-ethano-β-D-ribofuranosyl)uracil]",no activity,,,,,
CC[C@H](NP(=O)(OC[C@H]1O[C@@H](n2ccc(=O)[nH]c2=O)[C@@]2(CCO2)[C@@H]1O)Oc1ccccc1)C(=O)OCc1ccccc1 (stereo partly drawn) [Compound 12a],,3.4,> 98,> 98,> 98,
C[C@H](NP(=O)(OC[C@H]1O[C@@H](n2ccc(=O)[nH]c2=O)[C@@]2(CCO2)[C@@H]1O)Oc1ccccc1)C(=O)OCc1ccccc1 (stereo partly drawn) [Compound 12b],,3.7,> 98,> 98,> 98,
C[C@H](NP(=O)(OC[C@H]1O[C@@H](n2ccc(=O)[nH]c2=O)[C@@]2(CCO2)[C@@H]1O)Oc1ccccc1)C(=O)OCC(C)(C)C (stereo partly drawn) [Compound 12c],,5.6,> 98,> 98,> 98,
CCCCOC(=O)[C@H](C)NP(=O)(OC[C@H]1O[C@@H](n2ccc(=O)[nH]c2=O)[C@@]2(CCO2)[C@@H]1O)Oc1ccccc1 (stereo partly drawn) [Compound 12d],,5.5,> 98,> 98,> 98,
"COC(=O)C(C)(C)NP(=O)(OC[C@H]1O[C@@H](n2ccc(=O)[nH]c2=O)[C@@]2(CCO2)[C@@H]1O)Oc1ccccc1 (stereo partly drawn) [Compound 12e, methyl 2-[[[(4R,5R,7R,8R)-5-(2,4-dioxo-3,4-dihydropyrimidin-1(2H)-yl)-8-hydroxy-1,6-dioxaspiro[3.4]octan-7-yl]methoxy](phenoxy)phosphorylamino]-2-methylpropanoate]",,23.4,> 98,> 98,> 98,
Cc1ccc(C(C)C)c(OP(=O)(N[C@@H](C)C(=O)OCc2ccccc2)OC[C@H]2O[C@@H](n3ccc(=O)[nH]c3=O)[C@@]3(CCO3)[C@@H]2O)c1 (stereo partly drawn) [Compound 12f],,8.7,18.7,> 98,1.3,
CC(C)OC(=O)[C@H](C)NP(=O)(OC[C@H]1O[C@@H](n2ccc(=O)[nH]c2=O)[C@@]2(CCO2)[C@@H]1O)Oc1ccccc1 (stereo partly drawn) [Compound 12g],,17.8,> 98,> 98,> 98,
O=C(OCc1ccccc1)[C@@H](NP(=O)(OC[C@H]1O[C@@H](n2ccc(=O)[nH]c2=O)[C@@]2(CCO2)[C@@H]1O)Oc1ccccc1)c1ccccc1 (stereo partly drawn) [Compound 12h],,,> 88,> 98,> 98,79.6
CC[C@H](NP(=O)(OC[C@H]1O[C@@H](n2ccc(=O)[nH]c2=O)[C@@]2(CCO2)[C@@H]1O)Oc1ccccc1)C(=O)OC(C)C (stereo partly drawn) [Compound 12i],,> 96,> 98,> 98,> 98,
C[C@H](NP(=O)(OC[C@H]1O[C@@H](n2ccc(=O)[nH]c2=O)[C@@]2(CCO2)[C@@H]1O)Oc1ccc(Cl)cc1)C(=O)OCc1ccccc1 (stereo partly drawn) [Compound 12j],,0.7,> 98,> 98,> 98,
C[C@H](NP(=O)(OC[C@H]1O[C@@H](n2ccc(=O)[nH]c2=O)[C@@]2(CCO2)[C@@H]1O)Oc1cccc2ccccc12)C(=O)OCc1ccccc1 (stereo partly drawn) [Compound 12k],,2,> 98,> 76.9,> 98,
CC(C)COC(=O)[C@H](C)NP(=O)(OC[C@H]1O[C@@H](n2ccc(=O)[nH]c2=O)[C@@]2(CCO2)[C@@H]1O)Oc1ccccc1 (stereo partly drawn) [Compound 12l],,0.44,> 98,> 98,> 98,
O=C(CNP(=O)(OC[C@H]1O[C@@H](n2ccc(=O)[nH]c2=O)[C@@]2(CCO2)[C@@H]1O)Oc1ccc(Cl)cc1)OCc1ccccc1 (stereo partly drawn) [Compound 12m],,7.17,> 98,> 98,> 98,
